Our source for the EC50 and Maximum % activity values is patent publication US10118916B2, “Modulators of cystic fibrosis transmembrane conductance regulator protein” (AbbVie S.à.r.l., priority 2016, dated 2018).

The test concerns the target T1, F508delCFTR (Homo sapiens, UniProt P13569, DEL508-508).
T1 construct: expressed in transfected cells; host or cells: CFBE41o- (human lung derived epithelial cell line), doxycycline-inducible
As to the kind of experiment: Cell Surface Expression-Horse Radish Peroxidase (CSE-HRP) assay. The class given is cell-based. The settings on record: CFBE41o-F508delCFTR-HRP cells; for EC50: F508delCFTR cell surface expression, luminescence, 18-24 hours at 33° C., highest concentration 20 μM; for Maximum % activity: maximum at any tested concentration, normalized to on-plate positive control (3 μM). In short, it runs like this:
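CFBE41o- cells expressing doxycycline-induced (0.5 μg/mL, 72 h at 37 °C) F508delCFTR with HRP in the fourth extracellular loop; compounds 8 points, 3-fold from 20 μM, 18-24 h at 33 °C. Surface HRP measured by luminol luminescence, normalised to DMSO and 3 μM reference corrector; EC50 from variable-slope sigmoidal fit of triplicate plates.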

T1 sequence (P13569 with tags, fused parts or gaps DEL508-508): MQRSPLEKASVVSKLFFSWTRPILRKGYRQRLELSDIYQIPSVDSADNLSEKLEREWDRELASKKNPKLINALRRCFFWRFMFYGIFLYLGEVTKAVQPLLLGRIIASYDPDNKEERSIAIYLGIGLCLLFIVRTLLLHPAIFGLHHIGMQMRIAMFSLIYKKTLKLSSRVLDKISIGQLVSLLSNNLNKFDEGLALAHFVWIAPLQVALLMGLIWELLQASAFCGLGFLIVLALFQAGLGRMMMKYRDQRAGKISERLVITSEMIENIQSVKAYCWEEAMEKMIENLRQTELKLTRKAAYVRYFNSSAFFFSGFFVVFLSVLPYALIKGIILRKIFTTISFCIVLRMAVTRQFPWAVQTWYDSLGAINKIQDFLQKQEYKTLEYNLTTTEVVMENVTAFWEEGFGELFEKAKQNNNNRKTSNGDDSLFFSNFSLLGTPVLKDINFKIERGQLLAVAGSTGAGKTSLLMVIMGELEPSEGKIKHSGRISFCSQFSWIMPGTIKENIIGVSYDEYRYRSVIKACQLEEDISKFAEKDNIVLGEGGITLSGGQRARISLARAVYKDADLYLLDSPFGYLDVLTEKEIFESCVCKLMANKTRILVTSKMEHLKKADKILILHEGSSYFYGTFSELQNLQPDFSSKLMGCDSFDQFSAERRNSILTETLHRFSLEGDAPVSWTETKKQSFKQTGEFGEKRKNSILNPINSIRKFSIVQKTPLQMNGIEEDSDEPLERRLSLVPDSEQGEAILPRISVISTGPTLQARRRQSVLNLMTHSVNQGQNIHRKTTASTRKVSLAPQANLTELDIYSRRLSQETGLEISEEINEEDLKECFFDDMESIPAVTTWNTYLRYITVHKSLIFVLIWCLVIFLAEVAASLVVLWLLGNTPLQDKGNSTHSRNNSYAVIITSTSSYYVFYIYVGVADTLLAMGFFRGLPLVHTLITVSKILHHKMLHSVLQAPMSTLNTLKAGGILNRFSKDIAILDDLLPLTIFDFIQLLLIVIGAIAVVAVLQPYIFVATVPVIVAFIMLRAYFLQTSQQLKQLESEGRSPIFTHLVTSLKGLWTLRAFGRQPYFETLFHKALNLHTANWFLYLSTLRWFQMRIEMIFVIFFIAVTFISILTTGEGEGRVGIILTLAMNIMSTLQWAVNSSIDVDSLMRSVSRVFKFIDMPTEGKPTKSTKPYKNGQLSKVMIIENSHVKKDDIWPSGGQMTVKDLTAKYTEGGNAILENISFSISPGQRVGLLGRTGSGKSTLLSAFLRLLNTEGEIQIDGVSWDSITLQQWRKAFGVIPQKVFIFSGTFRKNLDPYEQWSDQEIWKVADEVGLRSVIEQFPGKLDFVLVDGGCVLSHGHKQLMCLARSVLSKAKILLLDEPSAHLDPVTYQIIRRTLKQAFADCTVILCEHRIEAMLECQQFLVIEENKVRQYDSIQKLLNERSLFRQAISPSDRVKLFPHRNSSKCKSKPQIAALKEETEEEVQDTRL

For the compound `COc1ccc2c(c1)O[C@@H](c1ccc(C(=O)O)cc1)C[C@H]2NC(=O)C1(c2ccccc2)CC(F)(F)C1` [Example 72, 4-{(2R,4R)-4-[(3,3-difluoro-1-phenylcyclobutane-1-carbonyl)amino]-7-methoxy-3,4-dihydro-2H-1-benzopyran-2-yl}benzoic acid], the EC50 (as a rule, the midpoint of the concentration-response curve) is > 20000 nM and the Maximum % activity is given as 1.4%.
Take `COc1ccc2c(c1)O[C@@H](c1ccc(C(=O)O)cc1)C[C@H]2NC(=O)C1(c2ccccc2F)CCCC1` [Example 91, 4-[(2R,4R)-4-{[1-(2-fluorophenyl)cyclopentane-1-carbonyl]amino}-7-methoxy-3,4-dihydro-2H-1-benzopyran-2-yl]benzoic acid]: the EC50 is > 20000 nM and the Maximum % activity came out at 5.0%.
The corresponding values for `COc1ccc2c(c1)O[C@@H](c1cccc(C(=O)O)c1)C[C@H]2NC(=O)C(C)(C)Oc1ccc(Cl)cc1` [Example 45, 3-{(2R,4R)-4-[2-(4-chlorophenoxy)-2-methylpropanamido]-7-methoxy-3,4-dihydro-2H-1-benzopyran-2-yl}benzoic acid] are > 20000 nM and 15.3%.
The corresponding values for `COc1ccc2c(c1)O[C@@H](c1ccc(C(=O)O)cc1)C[C@H]2NC(=O)C1(c2ccc(Br)cc2)CC1` [Example 4, 4-[(2R,4R)-4-{[1-(4-bromophenyl)cyclopropane-1-carbonyl]amino}-7-methoxy-3,4-dihydro-2H-1-benzopyran-2-yl]benzoic acid] are 260 nM and 94.2%.
As for `Cc1ccccc1C(C)(C)C(=O)N[C@@H]1C[C@H](c2cccc(C(=O)O)c2)Oc2ccccc21` [Example 49, 3-{(2R,4R)-4-[2-methyl-2-(2-methylphenyl)propanamido]-3,4-dihydro-2H-1-benzopyran-2-yl}benzoic acid], the 50% effective concentration (EC50) is > 20000 nM and the Maximum % activity is on record as 3.5%.
Taken in the same sequence, the figures for `COc1ccc2c(c1)O[C@@H](c1ccc(C(=O)O)cc1)C[C@H]2NC(=O)C1(c2ccccc2)CC1` [Example 75, 4-{(2R,4R)-7-methoxy-4-[(1-phenylcyclopropane-1-carbonyl)amino]-3,4-dihydro-2H-1-benzopyran-2-yl}benzoic acid] were 950 nM and 37.9%.
Consider `COc1ccc(C2(C(=O)N[C@@H]3C[C@H](c4cccc(C(=O)O)c4)Oc4cc(OC)ccc43)CC2)cc1` [Example 44, 3-[(2R,4R)-7-methoxy-4-{[1-(4-methoxyphenyl)cyclopropane-1-carbonyl]amino}-3,4-dihydro-2H-1-benzopyran-2-yl]benzoic acid], for which a half-maximal response (EC50) required 100 nM and the Maximum % activity is reported as 35.3%.
With `COc1ccc2c(c1)O[C@@H](c1ccc(C(=O)O)cc1)C[C@H]2NC(=O)C(C)(C)c1ccc(OC)c(F)c1` [Example 113, 4-{(2R,4R)-4-[2-(3-fluoro-4-methoxyphenyl)-2-methylpropanamido]-7-methoxy-3,4-dihydro-2H-1-benzopyran-2-yl}benzoic acid], the EC50 came out at 60 nM and the Maximum % activity came out at 43.5%.
`COc1ccc2c(c1)CC[C@@]2(C)C(=O)N[C@@H]1C[C@H](c2ccc(C(=O)O)cc2)Oc2cc(OC)ccc21` [Example 100, 4-[(2R,4R)-7-methoxy-4-{[(1R)-5-methoxy-1-methyl-2,3-dihydro-1H-indene-1-carbonyl]amino}-3,4-dihydro-2H-1-benzopyran-2-yl]benzoic acid]: the midpoint of the response, the EC50, lay at 480 nM and the Maximum % activity is 55.3%.
On to `C[C@]1(C(=O)N[C@@H]2C[C@H](c3ccc(C(=O)O)cc3)Oc3ccccc32)CCc2cc(Cl)ccc2O1` [Example 60, 4-[(2R,4R)-4-{[(2R)-6-chloro-2-methyl-3,4-dihydro-2H-1-benzopyran-2-carbonyl]amino}-3,4-dihydro-2H-1-benzopyran-2-yl]benzoic acid], for which the EC50 was > 20000 nM and the Maximum % activity came to 2.3%.
Take `C[C@@]1(C(=O)N[C@@H]2C[C@H](c3cccc(C(=O)O)c3)Oc3ccccc32)Cc2cc(Cl)ccc2O1` [Example 27, 3-[(2R,4R)-4-{[(2S)-5-chloro-2-methyl-2,3-dihydro-1-benzofuran-2-carbonyl]amino}-3,4-dihydro-2H-1-benzopyran-2-yl]benzoic acid]: the EC50 was > 20000 nM and the Maximum % activity turned out to be 7.9%.
Taken in the same sequence, the figures for `COC(=O)c1cccc([C@H]2C[C@@H](NC(=O)[C@]3(C)CCc4cc(Cl)ccc4O3)c3ccccc3O2)c1` [Example 63, methyl 3-[(2R,4R)-4-{[(2S)-6-chloro-2-methyl-3,4-dihydro-2H-1-benzopyran-2-carbonyl]amino}-3,4-dihydro-2H-1-benzopyran-2-yl]benzoate] were > 20000 nM and 5.1%.
The corresponding values for `COC(=O)c1cccc([C@H]2C[C@@H](NC(=O)[C@]3(C)CCc4cc(OC)ccc43)c3ccc(OC)cc3O2)c1` [Example 29, methyl 3-[(2R,4R)-7-methoxy-4-{[(1R)-5-methoxy-1-methyl-2,3-dihydro-1H-indene-1-carbonyl]amino}-3,4-dihydro-2H-1-benzopyran-2-yl]benzoate] are 1440 nM and 37.8%.
Turning to `COc1ccc2c(c1)OC(c1ccc(OC)c(OC)c1)CC2NC(=O)C1(c2ccc(F)cc2)CC1` (centres unmarked) [Example 20, N-[2-(3,4-dimethoxyphenyl)-7-methoxy-3,4-dihydro-2H-1-benzopyran-4-yl]-1-(4-fluorophenyl)cyclopropane-1-carb oxamide], a half-maximal response (EC50) required 890 nM and the Maximum % activity was determined as 51.1%.
The corresponding values for `COC(=O)c1ccc([C@H]2C[C@@H](NC(=O)[C@@]3(C)CCc4cc(Cl)ccc4O3)c3ccccc3O2)cc1` [Example 59, methyl 4-[(2R,4R)-4-{[(2R)-6-chloro-2-methyl-3,4-dihydro-2H-1-benzopyran-2-carbonyl]amino}-3,4-dihydro-2H-1-benzopyran-2-yl]benzoate] are > 20000 nM and 1.8%.
As for `C[C@]1(C(=O)N[C@@H]2C[C@H](c3cccc(C(=O)O)c3)Oc3ccccc32)Cc2cc(Cl)ccc2O1` [Example 26, 3-[(2R,4R)-4-{[(2R)-5-chloro-2-methyl-2,3-dihydro-1-benzofuran-2-carbonyl]amino}-3,4-dihydro-2H-1-benzopyran-2-yl]benzoic acid], the EC50 is > 20000 nM and the Maximum % activity amounted to 1.6%.
Take `COc1ccc2c(c1)O[C@@H](c1ccc(C(=O)O)cc1)C[C@H]2NC(=O)[C@]1(C)CCc2cc(C)ccc21` (single isomer, unassigned) [Example 126]: it took 650 nM to reach a half-maximal effect (EC50) and the Maximum % activity is listed as 72.1%.
For the compound `CC(C)(C(=O)N[C@@H]1C[C@H](c2cccc(C(=O)O)c2)Oc2ccccc21)c1ccc(C(F)(F)F)cc1` [Example 51, 3-[(2R,4R)-4-{2-methyl-2-[4-(trifluoromethyl)phenyl]propanamido}-3,4-dihydro-2H-1-benzopyran-2-yl]benzoic acid], a half-maximal response (EC50) required 2030 nM and the Maximum % activity turned out to be 57.9%.
Consider `COc1ccc2c(c1)O[C@@H](c1ccc(C(=O)O)cc1)C[C@H]2NC(=O)C(C)(C)c1ccc(Cl)cc1` [Example 110, 4-{(2R,4R)-4-[2-(4-chlorophenyl)-2-methylpropanamido]-7-methoxy-3,4-dihydro-2H-1-benzopyran-2-yl}benzoic acid], for which the EC50 is 310 nM and the Maximum % activity stood at 85.0%.
The corresponding values for `COc1ccc2c(c1)O[C@@H](c1ccc(C(=O)O)cc1)C[C@H]2NC(=O)[C@@]1(C)CCc2cc(Cl)ccc2O1` [Example 67, 4-[(2R,4R)-4-{[(2R)-6-chloro-2-methyl-3,4-dihydro-2H-1-benzopyran-2-carbonyl]amino}-7-methoxy-3,4-dihydro-2H-1-benzopyran-2-yl]benzoic acid] are > 20000 nM and 4.7%.
Consider `COc1ccc2c(c1)O[C@@H](c1ccc(C(=O)O)cc1)C[C@H]2NC(=O)C1(c2ccccc2)CCCC1` [Example 97, 4-{(2R,4R)-7-methoxy-4-[(1-phenylcyclopentane-1-carbonyl)amino]-3,4-dihydro-2H-1-benzopyran-2-yl}benzoic acid], for which the EC50 is > 20000 nM and the Maximum % activity is listed as 2.5%.
`COc1ccc2c(c1)O[C@@H](c1ccc(C(=O)O)cc1)C[C@H]2NC(=O)C1(c2ccccc2F)CC1` [Example 106, 4-[(2R,4R)-4-{[1-(2-fluorophenyl)cyclopropane-1-carbonyl]amino}-7-methoxy-3,4-dihydro-2H-1-benzopyran-2-yl]benzoic acid]: the EC50 was found to be 1290 nM and the Maximum % activity is listed as 46.0%.
On to `CC1(C(=O)N[C@@H]2C[C@H](c3cccc(C(=O)O)c3)Oc3ccccc32)CCc2cc(OC(F)(F)F)ccc21` (stereo partly drawn) [Example 55, 3-[(2R,4R)-4-{[1-methyl-5-(trifluoromethoxy)-2,3-dihydro-1H-indene-1-carbonyl]amino}-3,4-dihydro-2H-1-benzopyran-2-yl]benzoic acid], for which the response was half-maximal at 2710 nM (EC50) and the Maximum % activity was 49.9%.
Taken in the same sequence, the figures for `COc1ccc2c(c1)O[C@@H](c1ccc(C(=O)O)cc1)C[C@H]2NC(=O)C(C)(C)c1ccc2c(c1)OC(F)(F)O2` [Example 1, 4-{(2R,4R)-4-[2-(2,2-difluoro-2H-1,3-benzodioxol-5-yl)-2-methylpropanamido]-7-methoxy-3,4-dihydro-2H-1-benzopyran-2-yl}benzoic acid] were 550 nM and 110.0%.
In the case of `COc1ccc(C(C)(C)C(=O)NC2CC(c3ccc(OC)c(OC)c3)Oc3cc(OC)ccc32)cc1` (centres unmarked) [Example 23, N-[2-(3,4-dimethoxyphenyl)-7-methoxy-3,4-dihydro-2H-1-benzopyran-4-yl]-2-(4-methoxyphenyl)-2-methylpropanamide], the half-maximal effective concentration (EC50) came out at 230 nM and the Maximum % activity was 54.0%.
